Test system: sickle pod
Assay: Test Example 1: foliar spray herbicide effect on sickle pod in greenhouse pots
Type: in vivo, sickle pod (Cassia obtusifolia)
Details: evaluated 5 days after treatment, scale 0-10
Description: Evaluation of phytotoxicity against a crop was shown by “no” when almost no phytotoxicity was observed, “low” when a low level phytotoxicity was observed, “medium” when a medium level phytotoxicity was observed and “high” when a high level phytotoxicity was observed.
A plastic pot of 11 cm in diameter and 8 cm in depth was filled with field soil. A seed of sickle pod was sown and grown in a greenhouse for 28 days.
An emulsion of Compound A-1 was prepared by sufficiently mixing 5 parts of Compound A-1, 6 parts of Sorpol 3005X (surfactant, produced by Toho Chemical) and 89 parts of xylene.
Each of • single use of an emulsion of Compound A-1, • single use of an emulsion of Oxyfluorfen (commercial name: Goal, produced by Rohm & Hass Co., containing 23% of Oxyfluorfen), and • a mixed composition of an emulsion of Compound A-1 and an emulsion of Oxyfluorfen, • were diluted with water containing 1% Agri-dex (produced by Helena). Respective dilutions were uniformly sprayed from upper side onto foliages of sickle pod grown as described above with a small sprayer such that the amounts of the active ingredients were the amounts shown in Table 4.
After the treatment, they were raised in a greenhouse for 5 days and the effect against weeds was evaluated.

CCOc1cc(Oc2ccc(C(F)(F)F)cc2Cl)ccc1[N+](=O)[O-] [Oxyfluorfen, 2-chloro-1-(3-ethoxy-4-nitrophenoxy)-4-(trifluoromethyl)benzen]
Herbicide Effect sickle pod (500 g/ha active ingredient): 3
Herbicide Effect sickle pod (2000 g/ha active ingredient): 3
